Data taken from patent publication US20090281036A1, “FUSION PEPTIDE FOR INHIBITING INTERACTION OF NEURONAL NMDA RECEPTOR (NMDAR) AND NMDAR INTERACTING PROTEINS” (priority 2006, published 2009).
Entries after “also recorded” stand apart in the source; their conditions may differ. Where no end group is shown, it is not given here. [ ]: non-standard residue; d: D form.

What was measured:
Rat cortical neurons [1] = test: Duration of neuroprotection afforded by (Arg)8-NR2B9c in the face of excitotoxic insults (NMDA-induced cell death, pyknotic nuclei as % of total); assay type: cell-based
Method: Rat cortical neurons, taken from E21 rats, were cultured for 7-9 days in vitro in Neurobasal-A medium+B-27 supplement (both Invitrogen), 1 mM glutamine, +50 units/ml penicillin, 50 μg/ml streptomycin • 1. At varying times prior to peptide exposure, neurons were removed from Neurobasal-A based culture medium, and placed into TM (see above) with the inclusion of Insulin-transferrin-selenite supplement (Sigma). All subsequent steps took place in TM (see above). • 2. Neurons were then exposed to inventive fusion peptides at 10 μM for 1 hr. (particularly (Arg)8-NR2B9c peptides in D-form (D-TAT-D-NR2B9c, sequence vdseisslk-rrrrrrrr (SEQ ID NO: 35)) and also L-form (SEQ ID NO: 34)) • 3. After 1 hr neurons were washed once in TM to remove peptide. • 4. After a varying period of time, neurons were exposed to NMDA for 1 hr, after which neurons are placed in TM for 24 h. • 5. Neurons were fixed (3% paraformaldehyde) and stained (DAPI 4′,6-Diamidino-2-phenylindole). The number of pyknotic nuclei as a % of total was counted. Experiments were performed in triplicate.

Rat cortical neurons [2] = test: Duration of neuroprotection afforded by TAT-NR2B9c in the face of excitotoxic insults (NMDA-induced cell death, pyknotic nuclei as % of total); assay type: cell-based; conditions: for significant protection (duration after washout): peptide 10 μM for 1 hr, then washout
Method: Rat cortical neurons, taken from E21 rats, were cultured for 7-9 days in vitro in Neurobasal-A medium+B-27 supplement (both invitrogen), 1 mM glutamine, +50 units/ml penicillin, 50 μg/ml streptomycin. • 1. At varying times prior to compound exposure, neurons were removed from Neurobasal-A based culture medium, and placed into “transfection medium” (TM; Bading et al. (1993), Science 260, 181-186): 10% (Minimum Essential Medium, invitrogen (21090022), containing Earles salt, but no L-glutamine), 90% Salt-Glucose-Glycine (SGG) medium SGG: 114 mM NaCl, 0.219% NaHCO3, 5.292 mM KCl, 1 mM MgCl2, 2 mM CaCl2, 10 mM HEPES, 1 mM Glycine, 30 mM Glucose, 0.5 mM sodium pyruvate, 0.1% Phenol Red, insulintransferrin-selenite supplement (Sigma, 7.5 μg insulin/ml; 7.5 μg transferrin/ml and 7.5 ng sodium selenite/ml); final osmolarity 325 mosm/l). All subsequent steps took place in TM. • 2. Neurons were then exposed to inventive fusion peptides at 10 μM for 1 hr. (particularly TAT-NR2B9c peptides in L-form (L-TAT-L-NR2B9c sequence YGRKKRRQRRR-KLSSIESDV (SEQ ID NO: 32), identical to US 20030050243) and their D-form (D-TAT-D-NR2B9c, sequence vdseisslk-rrrqrrkkrgyin (SEQ ID NO: 33))) • 3. After 1 hr neurons were washed once in TM to remove peptide. • 4. After a varying period of time, neurons were exposed to NMDA at either 20 or 40 μM for 1 hr, after which neurons are placed in TM for 24 h. • 5. Neurons were fixed (3% paraformaldehyde) and stained (DAPI, 4′,6-Diamidino-2-phenylindole). Number of pyknotic nuclei as a % of total is counted. Experiments were performed in triplicate.

Row | Substance | efficacy (lowered cell death rate %) versus comparative compound L-(Arg)8-L-NR2B9c (Rat cortical neurons [1]; 20 μM NMDA, FIG. 3) | superior neuroprotection after washout of the peptide (duration) (Rat cortical neurons [1]; 20 μM NMDA, peptide 10 μM for 1 hr, then washout, FIG. 3) | efficacy (lowered cell death rate %) versus comparative compound L-(Arg)8-L-NR2B9c (Rat cortical neurons [1]; 40 μM NMDA, up to the 8 hr time point, FIG. 4) | performance compared with D-TAT-D-NR2B9c (Rat cortical neurons [1]; overall, 20 and 40 μM NMDA) | efficacy (lowered cell death rate %) versus comparative compound L-TAT-L-NR2B9c (Rat cortical neurons [2]; 20 μM NMDA, FIG. 1) | gap between peptide incubation and NMDA addition at which the positive effect shows (Rat cortical neurons [2]; 20 μM NMDA, FIG. 1) | efficacy (lowered cell death rate %) versus comparative compound L-TAT-L-NR2B9c (Rat cortical neurons [2]; 40 μM NMDA, FIG. 2) | time window in which the remarkable positive effect becomes apparent (Rat cortical neurons [2]; 40 μM NMDA, FIG. 2) | significant protection (duration after washout) (Rat cortical neurons [2]; 40 μM NMDA, FIG. 2)
1 | vdseisslk-rrrrrrrr ([dV][dD][dS][dE][dI][dS][dS][dL][dK][dR][dR][dR][dR][dR][dR][dR][dR]) [D-(Arg)8-D-NR2B9c, inventive fusion peptide of D-(Arg)8 transporter and D-NR2B9c] | at least equal, but predominantly significantly increased efficacy | up to 8 hours | at least equal, but predominantly significant increased efficacies; also recorded: equal to better protective effects | performs similar to D-TAT-D-NR2B9c (SEQ ID NO: 33)), albeit with a shorter duration of neuroprotective activity |  |  |  |  | 
2 | vdseisslk-rrrqrrkkrgy ([dV][dD][dS][dE][dI][dS][dS][dL][dK][dR][dR][dR][dQ][dR][dR][dK][dK][dR]G[dY]-NH2; N-terminus assumed; SMILES CC[C@@H](C)[C@@H](NC(=O)[C@@H](CCC(=O)O)NC(=O)[C@@H](CO)NC(=O)[C@@H](CC(=O)O)NC(=O)[C@H](N)C(C)C)C(=O)N[C@H](CO)C(=O)N[C@H](CO)C(=O)N[C@H](CC(C)C)C(=O)N[C@H](CCCCN)C(=O)N[C@H](CCCNC(=N)N)C(=O)N[C@H](CCCNC(=N)N)C(=O)N[C@H](CCCNC(=N)N)C(=O)N[C@H](CCC(N)=O)C(=O)N[C@H](CCCNC(=N)N)C(=O)N[C@H](CCCNC(=N)N)C(=O)N[C@H](CCCCN)C(=O)N[C@H](CCCCN)C(=O)N[C@H](CCCNC(=N)N)C(=O)NCC(=O)N[C@H](Cc1ccc(O)cc1)C(N)=O) [D-TAT-D-NR2B9c, inventive fusion peptide of D-TAT transporter and D-NR2B9c] |  |  |  |  | at least equal, but predominantly significantly increased efficacy | ≥ 8 h | at least equal, but predominantly significantly increased efficacy | less than 24 h | up to 24 hours
3 | YGRKKRRQRRRKLSSIESDV (Description of sequence L-TAT-L-NR2B9c sequence) [comparative compound, identical to US 20030050243, reference compound] |  |  |  |  |  |  |  |  | 1 h
